# Assays:
# Type in all cases: in vivo
# [1] = system: lambsquarters (Chenopodium album); experiment: Test B pre-/postemergence plant response; details: for Plant response rating, Lambsquarters: Postemergence
# Summary of the method: (§1)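 Each species received compound formulated in non-phytotoxic solvent with surfactant, either at planting into a loam and sand blend or as a foliar spray once plants reached 2 to 18 cm in peat-based medium. Plants stayed in the greenhouse 13 to 15 days before visual evaluation against controls, scored 0 (no effect) to 100 (complete control).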
# [2] = system: johnsongrass (Sorghum halepense); experiment: Test B pre-/postemergence plant response; details: for Plant response rating, Johnsongrass: Postemergence
# Summary of the method: as §1
# [3] = system: green foxtail (Setaria viridis); experiment: Test B pre-/postemergence plant response; details: for Plant response rating, Foxtail, Green: Postemergence
# Summary of the method: as §1
# [4] = system: goosegrass (Eleusine indica); experiment: Test B pre-/postemergence plant response; details: for Plant response rating, Goosegrass: Postemergence
# Summary of the method: as §1
# [5] = system: pigweed (Amaranthus retroflexus); experiment: Test B pre-/postemergence plant response; details: for Plant response rating, Pigweed: Postemergence
# Summary of the method: as §1
# [6] = system: giant foxtail (Setaria faberii); experiment: Test B pre-/postemergence plant response; details: for Plant response rating, Foxtail, Giant: Postemergence
# Summary of the method: as §1
# [7] = system: yellow nutsedge (Cyperus esculentus); experiment: Test B pre-/postemergence plant response; details: for Plant response rating, Nutsedge, Yellow: Postemergence
# Summary of the method: as §1
# corn (Zea mays) = experiment: Test B pre-/postemergence plant response; details: for Plant response rating, Corn: Postemergence
# Summary of the method: as §1
# soybean (Glycine max) = experiment: Test B pre-/postemergence plant response; details: for Plant response rating, Soybean: Postemergence
# Summary of the method: as §1
# [8] = system: velvetleaf (Abutilon theophrasti); experiment: Test B pre-/postemergence plant response; details: for Plant response rating, Velvetleaf: Postemergence
# Summary of the method: as §1
# [9] = system: windgrass (Apera spica-venti); experiment: Test B postemergence plant response; details: for Plant response rating, Windgrass: Postemergence
# Summary of the method: (§2)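 Visual ratings from 0 (no effect) to 100 (complete control), made against controls 13–15 days after treatment, kept in a greenhouse. Compounds were applied postemergence to potted plants at the 1- to 4-leaf stage (2–18 cm).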
# [10] = system: canarygrass (Phalaris minor); experiment: Test B postemergence plant response; details: for Plant response rating, Canarygrass: Postemergence
# Summary of the method: as §2
# [11] = system: winter barley (Hordeum vulgare); experiment: Test B postemergence plant response; details: for Barley plant response rating (0 to 100 scale): postemergence, 0 is no effect, 100 is complete control; for Plant response rating, Barley: Postemergence
# Summary of the method: as §2
# [12] = system: chickweed (Stellaria media); experiment: Test B postemergence plant response; details: for Plant response rating, Chickweed: Postemergence
# Summary of the method: as §2
# [13] = 31 g ai/ha, 0 to 100 scale (0 no effect, 100 complete control)
# [14] = 125 g ai/ha, scale 0 to 100 (0 no effect, 100 complete control)
# [15] = 250 g ai/ha, scale 0 to 100 (0 no effect, 100 complete control), 13 to 15 days
# [16] = 62 g ai/ha, scale 0 to 100 (0 no effect, 100 complete control)
# [17] = 62 g ai/ha, postemergence, 0 is no effect, 100 is complete control, 13 to 15 days
smiles,measurement,setting,value
O=C1CCCC(O)=C1C(=O)c1cnc(-c2ccccc2)n(C2CCSCC2)c1=O [Compound 164],"Plant response rating, Lambsquarters",[1]; [13],98
same,"Plant response rating, Lambsquarters",[1]; [14],100
same,"Plant response rating, Lambsquarters",[1]; [15],100
same,"Plant response rating, Johnsongrass",[2]; [13],45
same,"Plant response rating, Johnsongrass",[2]; [14],95
same,"Plant response rating, Johnsongrass",[2]; [15],98
same,"Plant response rating, Foxtail, Green",[3]; [13],70
same,"Plant response rating, Foxtail, Green",[3]; [14],98
same,"Plant response rating, Foxtail, Green",[3]; [15],100
same,"Plant response rating, Goosegrass",[4]; [13],85
same,"Plant response rating, Goosegrass",[4]; [14],98
same,"Plant response rating, Goosegrass",[4]; [15],98
same,"Plant response rating, Pigweed",[5]; [13],98
same,"Plant response rating, Pigweed",[5]; [14],100
same,"Plant response rating, Pigweed",[5]; [15],100
same,"Plant response rating, Foxtail, Giant",[6]; [13],90
same,"Plant response rating, Foxtail, Giant",[6]; [14],98
same,"Plant response rating, Foxtail, Giant",[6]; [15],100
same,"Plant response rating, Nutsedge, Yellow",[7]; [13],40
same,"Plant response rating, Nutsedge, Yellow",[7]; [14],70
same,"Plant response rating, Nutsedge, Yellow",[7]; [15],75
same,"Plant response rating, Corn",corn (Zea mays); [13],15
same,"Plant response rating, Corn",corn (Zea mays); [14],45
same,"Plant response rating, Corn",corn (Zea mays); [15],70
same,"Plant response rating, Soybean",soybean (Glycine max); [13],80
same,"Plant response rating, Soybean",soybean (Glycine max); [14],100
same,"Plant response rating, Soybean",soybean (Glycine max); [15],100
same,"Plant response rating, Velvetleaf",[8]; [13],70
same,"Plant response rating, Velvetleaf",[8]; [14],80
same,"Plant response rating, Velvetleaf",[8]; [15],95
same,"Plant response rating, Windgrass",[9]; [13],5
same,"Plant response rating, Windgrass",[9]; [14],75
same,"Plant response rating, Windgrass",[9]; [15],85
same,"Plant response rating, Canarygrass",[10]; [13],40
same,"Plant response rating, Canarygrass",[10]; [14],90
same,"Plant response rating, Canarygrass",[10]; [15],98
same,Barley plant response rating (0 to 100 scale),"[11]; 62 g ai/ha, 13 to 15 days",5
same,"Plant response rating, Barley",[11]; [13],5
same,"Plant response rating, Barley",[11]; [14],30
same,"Plant response rating, Barley",[11]; [15],35
same,"Plant response rating, Chickweed",[12]; [13],80
same,"Plant response rating, Chickweed",[12]; [14],98
same,"Plant response rating, Chickweed",[12]; [15],100
COCCn1c(-c2ccsc2)ncc(C(=O)C2=C(O)C3CCC(C3)C2=O)c1=O (stereo not shown) [Compound 228],"Plant response rating, Lambsquarters",[1]; [13],98
same,"Plant response rating, Lambsquarters",[1]; [16],98
same,"Plant response rating, Lambsquarters",[1]; [14],100
same,"Plant response rating, Lambsquarters",[1]; [15],100
same,"Plant response rating, Johnsongrass",[2]; [13],75
same,"Plant response rating, Johnsongrass",[2]; [16],75
same,"Plant response rating, Johnsongrass",[2]; [14],95
same,"Plant response rating, Johnsongrass",[2]; [15],100
same,"Plant response rating, Foxtail, Green",[3]; [13],85
same,"Plant response rating, Foxtail, Green",[3]; [16],90
same,"Plant response rating, Foxtail, Green",[3]; [14],98
same,"Plant response rating, Foxtail, Green",[3]; [15],100
same,"Plant response rating, Goosegrass",[4]; [13],80
same,"Plant response rating, Goosegrass",[4]; [16],80
same,"Plant response rating, Goosegrass",[4]; [14],85
same,"Plant response rating, Goosegrass",[4]; [15],90
same,"Plant response rating, Pigweed",[5]; [13],98
same,"Plant response rating, Pigweed",[5]; [16],100
same,"Plant response rating, Pigweed",[5]; [15],100
same,"Plant response rating, Foxtail, Giant",[6]; [13],85
same,"Plant response rating, Foxtail, Giant",[6]; [16],85
same,"Plant response rating, Foxtail, Giant",[6]; [14],95
same,"Plant response rating, Foxtail, Giant",[6]; [15],95
same,"Plant response rating, Nutsedge, Yellow",[7]; [13],40
same,"Plant response rating, Nutsedge, Yellow",[7]; [16],45
same,"Plant response rating, Nutsedge, Yellow",[7]; [14],60
same,"Plant response rating, Nutsedge, Yellow",[7]; [15],70
same,"Plant response rating, Corn",corn (Zea mays); [13],80
same,"Plant response rating, Corn",corn (Zea mays); [16],85
same,"Plant response rating, Corn",corn (Zea mays); [14],85
same,"Plant response rating, Corn",corn (Zea mays); [15],90
same,"Plant response rating, Soybean",soybean (Glycine max); [13],95
same,"Plant response rating, Soybean",soybean (Glycine max); [16],98
same,"Plant response rating, Soybean",soybean (Glycine max); [15],100
same,"Plant response rating, Velvetleaf",[8]; [13],80
same,"Plant response rating, Velvetleaf",[8]; [16],100
same,"Plant response rating, Velvetleaf",[8]; [15],100
same,"Plant response rating, Windgrass",[9]; [13],5
same,"Plant response rating, Windgrass",[9]; [16],50
same,"Plant response rating, Windgrass",[9]; [15],90
same,"Plant response rating, Canarygrass",[10]; [13],0
same,"Plant response rating, Canarygrass",[10]; [16],0
same,"Plant response rating, Canarygrass",[10]; [14],5
same,"Plant response rating, Canarygrass",[10]; [15],10
same,"Plant response rating, Barley",[11]; [13],0
same,"Plant response rating, Barley",[11]; [16],5
same,"Plant response rating, Barley",[11]; [14],40
same,"Plant response rating, Barley",[11]; [15],40
same,"Plant response rating, Chickweed",[12]; [13],98
same,"Plant response rating, Chickweed",[12]; [16],100
same,"Plant response rating, Chickweed",[12]; [14],100
same,"Plant response rating, Chickweed",[12]; [15],100
CCCCn1c(-c2cccc(Cl)c2)ncc(C(=O)C2=C(O)CCCC2=O)c1=O [Compound 146],Lambsquarters plant response rating (0 to 100 scale),[1]; [17],98
same,"Plant response rating, Lambsquarters",[1]; [13],95
same,"Plant response rating, Lambsquarters",[1]; [14],100
same,"Plant response rating, Lambsquarters",[1]; [15],100
same,Johnsongrass plant response rating (0 to 100 scale),[2]; [17],45
same,"Plant response rating, Johnsongrass",[2]; [13],45
same,"Plant response rating, Johnsongrass",[2]; [14],70
same,"Plant response rating, Johnsongrass",[2]; [15],95
same,"Foxtail, Green plant response rating (0 to 100 scale)",[3]; [17],55
same,"Plant response rating, Foxtail, Green",[3]; [13],50
same,"Plant response rating, Foxtail, Green",[3]; [14],80
same,"Plant response rating, Foxtail, Green",[3]; [15],90
same,Goosegrass plant response rating (0 to 100 scale),[4]; [17],90
same,"Plant response rating, Goosegrass",[4]; [13],75
same,"Plant response rating, Goosegrass",[4]; [14],95
same,"Plant response rating, Goosegrass",[4]; [15],95
same,Pigweed plant response rating (0 to 100 scale),[5]; [17],98
same,"Plant response rating, Pigweed",[5]; [13],95
same,"Plant response rating, Pigweed",[5]; [14],100
same,"Plant response rating, Pigweed",[5]; [15],100
same,"Foxtail, Giant plant response rating (0 to 100 scale)",[6]; [17],85
same,"Plant response rating, Foxtail, Giant",[6]; [13],75
same,"Plant response rating, Foxtail, Giant",[6]; [14],95
same,"Plant response rating, Foxtail, Giant",[6]; [15],98
same,"Nutsedge, Yellow plant response rating (0 to 100 scale)",[7]; [17],10
same,"Plant response rating, Nutsedge, Yellow",[7]; [13],5
same,"Plant response rating, Nutsedge, Yellow",[7]; [14],20
same,"Plant response rating, Nutsedge, Yellow",[7]; [15],40
same,Corn plant response rating (0 to 100 scale),corn (Zea mays); [17],5
same,"Plant response rating, Corn",corn (Zea mays); [13],0
same,"Plant response rating, Corn",corn (Zea mays); [14],20
same,"Plant response rating, Corn",corn (Zea mays); [15],35
same,Soybean plant response rating (0 to 100 scale),soybean (Glycine max); [17],85
same,"Plant response rating, Soybean",soybean (Glycine max); [13],70
same,"Plant response rating, Soybean",soybean (Glycine max); [14],98
same,"Plant response rating, Soybean",soybean (Glycine max); [15],100
same,Velvetleaf plant response rating (0 to 100 scale),[8]; [17],85
same,"Plant response rating, Velvetleaf",[8]; [13],80
same,"Plant response rating, Velvetleaf",[8]; [14],98
same,"Plant response rating, Velvetleaf",[8]; [15],100
same,Windgrass plant response rating (0 to 100 scale),[9]; [17],50
same,"Plant response rating, Windgrass",[9]; [13],45
same,"Plant response rating, Windgrass",[9]; [14],60
same,"Plant response rating, Windgrass",[9]; [15],60
same,Canarygrass plant response rating (0 to 100 scale),[10]; [17],0
same,"Plant response rating, Canarygrass",[10]; [13],0
same,"Plant response rating, Canarygrass",[10]; [14],5
same,"Plant response rating, Canarygrass",[10]; [15],10
same,Barley plant response rating (0 to 100 scale),"[11]; 62 g ai/ha, 13 to 15 days",0
same,"Plant response rating, Barley",[11]; [13],0
same,"Plant response rating, Barley",[11]; [14],15
same,"Plant response rating, Barley",[11]; [15],30
same,Chickweed plant response rating (0 to 100 scale),[12]; [17],95
same,"Plant response rating, Chickweed",[12]; [13],70
same,"Plant response rating, Chickweed",[12]; [14],98
same,"Plant response rating, Chickweed",[12]; [15],98
